From article PMC6311682, “Design, Synthesis, and Biological Evaluation of 2-Nitroimidazopyrazin-one/-es with Antitubercular and Antiparasitic Activity” (Journal of Medicinal Chemistry, 2018)
≈ marks a conversion by molar mass, not a printed value. Where “and” joins values, the source holds several entries; their conditions need not be identical. Identical values can stand only once. Like-named read-outs stand apart in the source and are kept apart here.

Experiments:
HEK293 cells = tested on: HEK293 cells; design: method as in Jarrad et al. 2; details: ATCC CRL-1573; ref Jarrad et al. 2; read-out: cytotoxicity CC50 HEK 293; cited from earlier work
HepG2 cells = tested on: HepG2 cells; design: method as in Jarrad et al. 2; details: ATCC HB-8065; ref Jarrad et al. 2; read-out: cytotoxicity CC50 HepG2; cited from earlier work
M. tuberculosis (H37Rv) = experiment: M. tuberculosis H37Rv resazurin reduction microplate MIC assay, hypoxic conditions (0.1% oxygen); assay type: cell-based, Mycobacterium tuberculosis
[1] = Kinetic solubility determination by LC-UV; details: room temperature, 1% DMSO
[2] = tested on: L. donovani MHOM/IN/80/DD8 (ATCC50212); experiment: L. donovani DD8 intracellular (THP-1) amastigote assay; assay type: cell-based; details: Leishmania donovani
[3] = tested on: ESKAPE pathogens S. aureus (ATCC 43300), E. coli (ATCC 25922), K. pneumoniae (ATCC 700603), A. baumannii (ATCC 19606), P. aeruginosa (ATCC 27853); experiment: Broth microdilution MIC assay, ESKAPE pathogens; assay type: cell-based
[4] = Broth microdilution MIC assay, ESKAPE pathogens; assay type: cell-based; details: S. aureus, E. coli, K. pneumoniae, A. baumannii, P. aeruginosa; read-out: antibacterial MIC ESKAPE
[5] = tested on: E. histolytica (HM1:IMSS); experiment: ATP-bioluminescence cell growth and survival assay, E. histolytica trophozoites; assay type: cell-based; details: Entamoeba histolytica
[6] = Mammalian cytotoxicity assay (resazurin), HepG2; details: human, HepG2 cells
[7] = tested on: T. b. brucei (strain 427, BS427); experiment: 384-well resazurin viability assay, T. b. brucei bloodstream parasites; assay type: cell-based; details: Trypanosoma brucei, BS427, n = 2; read-out: antiparasitic IC50 T. b. brucei
[8] = Mammalian cytotoxicity assay (resazurin), HEK293; details: human, HEK293 cells
[9] = tested on: C. difficile (630, ATCC BAA-1382); experiment: Broth microdilution MIC assay, C. difficile; assay type: cell-based, Clostridium difficile; details: 630 ATCC BAA-1382, median MIC; for MIC: Clostridioides difficile, ATCCBAA1382, read-out: antibacterial MIC C. difficile
[10] = tested on: C. albicans (ATCC 90028) and C. neoformans (H99, ATCC 208821); experiment: Broth microdilution MIC assay, fungi; assay type: cell-based; details: for MIC: Candida albicans, read-out: antifungal MIC
[11] = PBS, pH 7.4, Solubility µM (PBS), PBS pH 7.4, 24 h
[12] = water, Solubility µM (H2O), 24 h
[13] = read-out: antiparasitic IC50 L. donovani
[14] = read-out: antiparasitic pIC50 ± SE L. donovani (converted)
[15] = read-out: antiparasitic IC50 E. histolytica
[16] = read-out: antiparasitic pIC50 ± SE E. histolytica (converted)

| SMILES | CC50 (HEK293 cells) [µM] | CC50 (HepG2 cells) [µM] | solubility at 24 h [1, 11] [µM] | solubility at 24 h [1, 12] [µM] | IC50 [2, 13] [µM] | IC50 [2, 14] [µM] | antibacterial MIC ESKAPE [3] [µg/mL] | MIC [4] [µg/mL] | CC50 at 24 h [6] [µM] | CC50 at 24 h [8] [µM] | MIC [9] [µg/mL] | antifungal MIC [10] [µg/mL] | MIC [10] [µg/mL] | other results |
| --- | --- | --- | --- | --- | --- | --- | --- | --- | --- | --- | --- | --- | --- | --- |
| O=C(NCc1ccc(OC(F)(F)F)cc1)c1ncc([N+](=O)[O-])[nH]1 [16c] | 93 | 104 | – | – | – | – | – | – | – | – | – | – | – | M. tuberculosis hypoxia % I (M. tuberculosis (H37Rv); at 32 μg/mL): 75% and 60–75% |
| O=C(NCc1ccc(F)cc1)c1ncc([N+](=O)[O-])[nH]1 [16e] | > 100 | > 100 | – | – | – | – | – | – | – | – | – | – | – | – |
| O=C(NCc1cccc(OC(F)(F)F)c1)c1ncc([N+](=O)[O-])[nH]1 [16f] | > 100 | > 100 | – | – | – | – | – | – | – | – | – | – | – | – |
| Cc1cccc(Cn2ccn3cc([N+](=O)[O-])nc3c2=O)c1 [17g, 7-(3-Methylbenzyl)-2-nitroimidazo[1,2-a]pyrazin-8(7H)-one] | – | – | < 5 | < 5 | > 20 | > 20 | >32 | > 32 | – | – | – | – | – | M. tuberculosis hypoxia % I (M. tuberculosis (H37Rv); @ 0.125–8 μg/mL): 70–90% I @ 0.125–8 μg/mL; IC50 [5, 15]: > 50 µM; IC50 [5, 16]: > 50.1 µM |
| O=c1c2nc([N+](=O)[O-])cn2ccn1Cc1cccc(C(F)(F)F)c1 [17h, 2-Nitro-7-(3-(trifluoromethyl)benzyl)imidazo[1,2-a]pyrazin-8(7H)-one] | – | – | – | – | > 40 | > 39.8 | >32 | > 32 | – | – | – | – | – | M. tuberculosis hypoxia % I (M. tuberculosis (H37Rv); @ 0.06–16 μg/mL): 70–90% I @ 0.06–16 μg/mL; IC50 [5, 15]: > 50 µM; IC50 [5, 16]: > 50.1 µM |
| CC(=O)OCCn1c(-c2ccccc2)cn2cc([N+](=O)[O-])nc2c1=O [24b, 2-(2-Nitro-8-oxo-6-phenylimidazo[1,2-a]pyrazin-7(8H)-yl)ethyl Acetate] | – | – | 187 ± 17.4 | 164 ± 7.57 | > 80 | > 79.4 | >32 | > 32 | > 100 | > 100 | 64 | >32 | > 32 | IC50 [7]: < 1000 nM |
| Cc1cn2cc([N+](=O)[O-])nc2c(=O)[nH]1 [25a, 6-Methyl-2-nitroimidazo[1,2-a]pyrazin-8(7H)-one] | – | – | 183 ± 29.2 (≈ 35.5 µg/mL) | 182 ± 18.2 (≈ 35.3 µg/mL) | > 80 | > 79.4 | >32 | > 32 | > 100 | > 100 | > 64 | >32 | > 32 | antibacterial MIC C. difficile [9]: >64 µg/mL |
| CC(=O)OCCOc1nc(C)cn2cc([N+](=O)[O-])nc12 [25c, 2-((6-Methyl-2-nitroimidazo[1,2-a]pyrazin-8-yl)oxy)ethyl] | – | – | 185 ± 2.69 (≈ 51.8 µg/mL) | 169 ± 11 (≈ 47.4 µg/mL) | > 80 | > 79.4 | >32 | > 32 | > 100 | > 100 | > 64 | >32 | > 32 | antibacterial MIC C. difficile [9]: >64 µg/mL |
| Cc1cn2cc([N+](=O)[O-])nc2c(=O)n1CCO [25d, 7-(2-Hydroxyethyl)-6-methyl-2-nitroimidazo[1,2-a]pyrazin-8(7H)-one] | – | – | > 200 | > 200 | > 80 | > 79.4 | >32 | > 32 | > 100 | > 100 | > 64 | >32 | > 32 | antibacterial MIC C. difficile [9]: >64 µg/mL |
| Cc1cn2cc([N+](=O)[O-])nc2c(OCCO)n1 [25e, 2-((6-Methyl-2-nitroimidazo[1,2-a]pyrazin-8-yl)oxy)ethan-1-ol] | – | – | 193 ± 3.28 (≈ 46 µg/mL) | 196 ± 1.45 (≈ 46.7 µg/mL) | > 80 | > 79.4 | >32 | > 32 | > 100 | > 100 | > 64 | >32 | > 32 | antibacterial MIC C. difficile [9]: >64 µg/mL |
| Cc1[nH]c(=O)c2nc([N+](=O)[O-])cn2c1C [26a, 5,6-Dimethyl-2-nitroimidazo[1,2-a]pyrazin-8(7H)-one] | – | – | > 200 | > 200 | > 80 | > 79.4 | >32 | > 32 | > 100 | > 100 | > 64 | >32 | > 32 | antibacterial MIC C. difficile [9]: >64 µg/mL |
| Cc1nc(OCc2ccc(OC(F)(F)F)cc2)c2nc([N+](=O)[O-])cn2c1C [26c, 5,6-Dimethyl-2-nitro-8-((4-(trifluoromethoxy)benzyl)oxy)imidazo[1,2-a]pyrazine] | – | – | < 5 | < 5 | > 80 | > 79.4 | >32 | > 32 | > 100 | > 100 | > 64 | >32 | > 32 | antibacterial MIC C. difficile [9]: >64 µg/mL |
| NC(=O)c1nc([N+](=O)[O-])cn1Cc1ccc(OC(F)(F)F)cc1 [28c] | > 100 | > 100 | – | – | – | – | – | – | – | – | – | – | – | – |
| NC(=O)c1nc([N+](=O)[O-])cn1Cc1ccc(F)cc1 [28e] | > 100 | > 100 | – | – | – | – | – | – | – | – | – | – | – | – |
| NC(=O)c1nc([N+](=O)[O-])cn1Cc1cccc(OC(F)(F)F)c1 [28f] | > 100 | > 100 | – | – | – | – | – | – | – | – | – | – | – | – |
| CNC(=O)c1nc([N+](=O)[O-])cn1Cc1ccc(OC(F)(F)F)cc1 [28g] | > 100 | > 100 | – | – | – | – | – | – | – | – | – | – | – | – |
| CN(C)C(=O)c1nc([N+](=O)[O-])cn1Cc1ccc(OC(F)(F)F)cc1 [28h] | > 100 | > 100 | – | – | – | – | – | – | – | – | – | – | – | – |
| CCOC(=O)c1nc([N+](=O)[O-])cn1Cc1ccc(OC(F)(F)F)cc1 [28i] | > 100 | > 100 | – | – | – | – | – | – | – | – | – | – | – | – |
| O=C(NO)c1nc([N+](=O)[O-])cn1Cc1ccc(OC(F)(F)F)cc1 [28j] | 36 | > 100 | – | – | – | – | – | – | – | – | – | – | – | M. tuberculosis hypoxia % I (M. tuberculosis (H37Rv); at 32 μg/mL): 60% and 60–75% |
| NNC(=O)c1nc([N+](=O)[O-])cn1Cc1ccc(OC(F)(F)F)cc1 [28k] | > 100 | > 100 | – | – | – | – | – | – | – | – | – | – | – | – |
| Cc1ncc([N+](=O)[O-])n1CCO [metronidazole 1, metronidazole, reference compound] | > 100 | > 100 | – | – | – | – | – | > 32 | > 100 | > 100 | – | – | > 32 | – |
